{"source": "patent US20230107642A1", "about": "(Erasca, Inc., priority 2020, published 2023)", "data": [{"biological_target": "T1, Cys12 of the KRAS 4B G12C protein (Homo sapiens, UniProt P01116, G12C)", "T1 construct": "This protein contained 188 amino acids in total, including an N-terminal 6-Histidine tag; made in house; host or cells: E. coli BL21", "assay": "In vitro covalent adduct formation (CAF) assay, LC-MS intact mass", "type": "binding", "conditions": "10 uM compound, 60 min", "in_short": "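GDP-loaded (>95%) His-TEV-tagged KRAS 4B G12C (residues 1–169), 5 μM in TBS pH 7.4, incubated with 10 μM compound (4% DMSO) at 22° C for one hour. Intact-protein LC-MS gave free:adduct ratios, reported as percent protein modified; duplicate runs.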", "units": {"% CAF 10 uM @ 60 min": "%"}, "values": [{"smiles": "C=CC(=O)N1[C@H](C)CN(c2nc(=O)n3c4c(c(-c5cc(Cl)c(F)cc5F)c(C(F)(F)F)cc24)SC[C@@H]3CN(C)C)C[C@@H]1C", "note": "(atropisomer, axis not shown) [Example 1375, (3S,10R)-7-((3S,5R)-4-acryloyl-3,5-dimethylpiperazin-1-yl)-10-(5-chloro-2,4-difluorophenyl)-3-((dimethylamino)methyl)-9-(trifluoromethyl)-2,3-dihydro-5H-[1,4]thiazino[2,3,4-ij]quinazolin-5-one]", "% CAF 10 uM @ 60 min": 93.9}, {"smiles": "C=CC(=O)N1[C@H](C)CN(c2nc(=O)n3c4c(c(-c5cc(Cl)c(F)cc5F)c(C(F)(F)F)cc24)SC[C@@H]3CN(C)C)C[C@@H]1C", "note": "(atropisomer, axis not shown) [Example 1376, (3S,10S)-7-((3S,5R)-4-acryloyl-3,5-dimethylpiperazin-1-yl)-10-(5-chloro-2,4-difluorophenyl)-3-((dimethylamino)methyl)-9-(trifluoromethyl)-2,3-dihydro-5H-[1,4]thiazino[2,3,4-ij]quinazolin-5-one]", "% CAF 10 uM @ 60 min": 83.9}, {"smiles": "C=CC(=O)N1C[C@H](C)N(c2nc(=O)n3c4c(c(-c5cccc6cnn(C)c56)c(C(F)(F)F)cc24)SC[C@@H]3CN2CCN(CC)CC2)C[C@H]1C", "note": "(atropisomer, axis not shown) [Example 1381, (3S,10R)-7-((2S,5R)-4-acryloyl-2,5-dimethylpiperazin-1-yl)-3-((4-ethylpiperazin-1-yl)methyl)-10-(1-methyl-1H-indazol-7-yl)-9-(trifluoromethyl)-2,3-dihydro-5H-[1,4]thiazino[2,3,4-ij]quinazolin-5-one]", "% CAF 10 uM @ 60 min": 19.1}, {"smiles": "C=CC(=O)N1C[C@H](C)N(c2nc(=O)n3c4c(c(-c5cccc6cnn(C)c56)c(C(F)(F)F)cc24)SC[C@@H]3CN2CCN(CC)CC2)C[C@H]1C", "note": "(atropisomer, axis not shown) [Example 1382, (3S,10S)-7-((2S,5R)-4-acryloyl-2,5-dimethylpiperazin-1-yl)-3-((4-ethylpiperazin-1-yl)methyl)-10-(1-methyl-1H-indazol-7-yl)-9-(trifluoromethyl)-2,3-dihydro-5H-[1,4]thiazino[2,3,4-ij]quinazolin-5-one]", "% CAF 10 uM @ 60 min": 49.1}, {"smiles": "C=CC(=O)N1C[C@H](C)N(c2nc(=O)n3c4c(c(-c5cccc6cnn(C)c56)c(C(F)(F)F)cc24)SC[C@@H]3CN2CCN(C3CC3)CC2)C[C@H]1C", "note": "(atropisomer, axis not shown) [Example 1388, (3S,10S)-7-((2S,5R)-4-acryloyl-2,5-dimethylpiperazin-1-yl)-3-((4-cyclopropylpiperazin-1-yl)methyl)-10-(1-methyl-1H-indazol-7-yl)-9-(trifluoromethyl)-2,3-dihydro-5H-[1,4]thiazino[2,3,4-ij]quinazolin-5-one]", "% CAF 10 uM @ 60 min": 95.3}, {"smiles": "C=CC(=O)N1[C@H](C)CN(c2nc(=O)n3c4c(c(-c5cccc6cnn(C)c56)c(C(F)(F)F)cc24)SC[C@@H]3CN2CCN(CC)CC2)C[C@@H]1C", "note": "(atropisomer, axis not shown) [Example 1389, (3S,10S)-7-((3S,5R)-4-acryloyl-3,5-dimethylpiperazin-1-yl)-3-((4-ethylpiperazin-1-yl)methyl)-10-(1-methyl-1H-indazol-7-yl)-9-(trifluoromethyl)-2,3-dihydro-5H-[1,4]thiazino[2,3,4-ij]quinazolin-5-one]", "% CAF 10 uM @ 60 min": 69.1}, {"smiles": "C=CC(=O)N1CCN(c2nc(=O)n3c4c(c(-c5ccc(F)cc5F)c(C(F)(F)F)cc24)SC[C@@H]3CN2CCN(C3CC3)CC2)CC1", "note": "(atropisomer, axis not shown) [Example 1390, (3S,10R)-7-(4-acryloylpiperazin-1-yl)-3-((4-cyclopropylpiperazin-1-yl)methyl)-10-(2,4-difluorophenyl)-9-(trifluoromethyl)-2,3-dihydro-5H-[1,4]thiazino[2,3,4-ij]quinazolin-5-one]", "% CAF 10 uM @ 60 min": 96.7}, {"smiles": "C=CC(=O)N1CCN(c2nc(=O)n3c4c(c(-c5ccc(F)cc5F)c(C(F)(F)F)cc24)SC[C@@H]3CN2CCN(C3CC3)CC2)CC1", "note": "(atropisomer, axis not shown) [Example 1391, (3S,10S)-7-(4-acryloylpiperazin-1-yl)-3-((4-cyclopropylpiperazin-1-yl)methyl)-10-(2,4-difluorophenyl)-9-(trifluoromethyl)-2,3-dihydro-5H-[1,4]thiazino[2,3,4-ij]quinazolin-5-one]", "% CAF 10 uM @ 60 min": 95.9}, {"smiles": "[2H]C([2H])=C([2H])C(=O)N1[C@H](C)CN(c2nc(=O)n3c4c(c(-c5cc(Cl)c(F)cc5F)c(C(F)(F)F)cc24)SC[C@@H]3COC)C[C@@H]1C", "note": "(atropisomer, axis not shown) [Example 1392, (3S,10S)-7-((3S,5R)-4-(acryloyl-d3)-3,5-dimethylpiperazin-1-yl)-10-(5-chloro-2,4-difluorophenyl)-3-(methoxymethyl)-9-(trifluoromethyl)-2,3-dihydro-5H-[1,4]thiazino[2,3,4-ij]quinazolin-5-one]", "% CAF 10 uM @ 60 min": 64.9}, {"smiles": "C=CC(=O)N1CCN(c2nc(=O)n3c4c(c(-c5ccc(F)c6cnn(C)c56)c(C(F)(F)F)cc24)SC[C@@H]3COC)CC1", "note": "(atropisomer, axis not shown) [Example 1392a, (3S,10S)-7-(4-acryloylpiperazin-1-yl)-10-(4-fluoro-1-methyl-1H-indazol-7-yl)-3-(methoxymethyl)-9-(trifluoromethyl)-2,3-dihydro-5H-[1,4]thiazino[2,3,4-ij]quinazolin-5-one]", "% CAF 10 uM @ 60 min": 97.2}, {"smiles": "[2H]C([2H])=C([2H])C(=O)N1[C@H](C)CN(c2nc(=O)n3c4c(c(-c5cc(Cl)c(F)cc5F)c(C(F)(F)F)cc24)SC[C@@H]3COC)C[C@@H]1C", "note": "(atropisomer, axis not shown) [Example 1393, (3S,10R)-7-((3S,5R)-4-(acryloyl-d3)-3,5-dimethylpiperazin-1-yl)-10-(5-chloro-2,4-difluorophenyl)-3-(methoxymethyl)-9-(trifluoromethyl)-2,3-dihydro-5H-[1,4]thiazino[2,3,4-ij]quinazolin-5-one]", "% CAF 10 uM @ 60 min": 95.4}, {"smiles": "C=CC(=O)N1CCN(c2nc(=O)n3c4c(c(-c5cc(Cl)c(F)cc5F)c(C(F)(F)F)cc24)SCC2(COC2)C3)CC1", "note": "(atropisomer, axis not shown) [Example 1396, (R)-8′-(4-acryloylpiperazin-1-yl)-11′-(5-chloro-2,4-difluorophenyl)-10′-(trifluoromethyl)-2′H,4′H,6′H-spiro[oxetane-3,3′-[1,4]thiazepino[2,3-4-ij]quinazolin-6′-one]", "% CAF 10 uM @ 60 min": 95.1}, {"smiles": "C=CC(=O)N1CCN(c2nc(=O)n3c4c(c(-c5cc(Cl)c(F)cc5F)c(C(F)(F)F)cc24)SCC2(COC2)C3)CC1", "note": "(atropisomer, axis not shown) [Example 1397, (S)-8′-(4-acryloylpiperazin-1-yl)-11′-(5-chloro-2,4-difluorophenyl)-10′-(trifluoromethyl)-2′H,4′H,6′H-spiro[oxetane-3,3′-[1,4]thiazepino[2,3,4-ij]quinazolin]-6′-one]", "% CAF 10 uM @ 60 min": 78.2}, {"smiles": "[2H]C([2H])=C([2H])C(=O)N1[C@H](C)CN(c2nc(=O)n3c4c(c(-c5ccc(F)cc5F)c(C(F)(F)F)cc24)SC[C@@H]3COC)C[C@@H]1C", "note": "(atropisomer, axis not shown) [Example 1404, (3S,10S)-7-((3S,5R)-4-(acryloyl-d3)-3,5-dimethylpiperazin-1-yl)-10-(2,4-difluorophenyl)-3-(methoxymethyl)-9-(trifluoromethyl)-2,3-dihydro-5H-[1,4]thiazino[2,3,4-ij]quinazolin-5-one]", "% CAF 10 uM @ 60 min": 80.9}, {"smiles": "[2H]C([2H])=C([2H])C(=O)N1[C@H](C)CN(c2nc(=O)n3c4c(c(-c5ccc(F)cc5F)c(C(F)(F)F)cc24)SC[C@@H]3COC)C[C@@H]1C", "note": "(atropisomer, axis not shown) [Example 1405, (3S,10R)-7-((3S,5R)-4-(acryloyl-d3)-3,5-dimethylpiperazin-1-yl)-10-(2,4-difluorophenyl)-3-(methoxymethyl)-9-(trifluoromethyl)-2,3-dihydro-5H-[1,4]thiazino[2,3,4-ij]quinazolin-5-one]", "% CAF 10 uM @ 60 min": 88.6}, {"smiles": "C=CC(=O)N1[C@H](C)CN(c2nc(=O)n3c4c(c(-c5c(F)ccc6cnn(C)c56)c(C(F)(F)F)cc24)SC[C@@H]3COC)C[C@@H]1C", "note": "(atropisomer, axis not shown) [Example 1406, (3S,10R)-7-((3S,5R)-4-acryloyl-3,5-dimethylpiperazin-1-yl)-10-(6-fluoro-1-methyl-1H-indazol-7-yl)-3-(methoxymethyl)-9-(trifluoromethyl)-2,3-dihydro-5H-[1,4]thiazino[2,3,4-ij]quinazolin-5-one]", "% CAF 10 uM @ 60 min": 75.9}, {"smiles": "C=CC(=O)N1[C@H](C)CN(c2nc(=O)n3c4c(c(-c5cccc6cnn(C)c56)c(C(F)(F)F)cc24)SC[C@@H]3CN2CCN(C3CC3)CC2)C[C@@H]1C", "note": "(atropisomer, axis not shown) [Example 1411, (3S,10R)-7-((3S,5R)-4-acryloyl-3,5-dimethylpiperazin-1-yl)-3-((4-cyclopropylpiperazin-1-yl)methyl)-10-(1-methyl-1H-indazol-7-yl)-9-(trifluoromethyl)-2,3-dihydro-5H-[1,4]thiazino[2,3,4-ij]quinazolin-5-one]", "% CAF 10 uM @ 60 min": 0}, {"smiles": "C=CC(=O)N1[C@H](C)CN(c2nc(=O)n3c4c(c(-c5cccc6cnn(C)c56)c(C(F)(F)F)cc24)SC[C@@H]3CN2CCN(C3CC3)CC2)C[C@@H]1C", "note": "(atropisomer, axis not shown) [Example 1412, (3S,10S)-7-((3S,5R)-4-acryloyl-3,5-dimethylpiperazin-1-yl)-3-((4-cyclopropylpiperazin-1-yl)methyl)-10-(1-methyl-1H-indazol-7-yl)-9-(trifluoromethyl)-2,3-dihydro-5H-[1,4]thiazino[2,3,4-ij]quinazolin-5-one]", "% CAF 10 uM @ 60 min": 85.4}]}]}
